Measurements taken from patent publication EP0359505A1, “Dopamine-beta hydroxylase inhibitors” (SMITHKLINE BEECHAM CORPORATION, priority 1988, dated 1990).

How the values were obtained:
[1] = system: spontaneously hypertensive rats; experiment: mean arterial blood pressure in spontaneously hypertensive rats, indwelling cannulae in the tail arteries; type: in vivo; settings: 100 mg/kg orally
Protocol: Further, spontaneously hypertensive rats were treated with 3-mercapto-4-benzyl-5-(4-pyridyl)-1,2,4-triazole at a dose of 100 mg/kg orally and mean arterial blood pressure was monitored for 250 minutes using indwelling cannulae in the tail arteries. […] The maximal blood pressure reduction was approximately 25 mmHg.

[2] = see Teresawa et al.; cited from earlier work
DBH = molecular target: T1, DBH (Homo sapiens, UniProt P09172); settings: as reported by Runti et al.; cited from earlier work
T1 sequence (P09172 1-617): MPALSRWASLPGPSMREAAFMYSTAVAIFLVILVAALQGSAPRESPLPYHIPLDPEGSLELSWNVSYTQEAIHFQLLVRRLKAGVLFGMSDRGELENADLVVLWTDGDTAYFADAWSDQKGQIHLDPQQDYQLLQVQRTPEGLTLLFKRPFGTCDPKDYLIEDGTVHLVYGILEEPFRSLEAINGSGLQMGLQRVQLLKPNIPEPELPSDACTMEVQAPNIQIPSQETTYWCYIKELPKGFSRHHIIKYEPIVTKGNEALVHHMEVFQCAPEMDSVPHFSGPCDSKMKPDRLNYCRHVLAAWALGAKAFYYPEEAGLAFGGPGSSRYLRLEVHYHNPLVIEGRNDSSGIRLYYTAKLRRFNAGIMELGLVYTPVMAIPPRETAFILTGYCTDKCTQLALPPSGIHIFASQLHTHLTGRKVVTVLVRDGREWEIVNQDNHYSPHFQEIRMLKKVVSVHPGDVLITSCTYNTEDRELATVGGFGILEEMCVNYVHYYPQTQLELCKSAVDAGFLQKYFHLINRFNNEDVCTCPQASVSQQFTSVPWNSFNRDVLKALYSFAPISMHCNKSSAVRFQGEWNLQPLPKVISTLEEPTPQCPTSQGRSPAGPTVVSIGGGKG

**Q.** Which “blood pressure compared to vehicle-treated controls” value ([1]; between 80 and 240 minutes following treatment) does the source give for `Sc1nnc(-c2ccncc2)n1Cc1ccccc1` [3-Mercapto-4-benzyl-5-(4-pyridyl)-1,2,4-triazole] here?
**A.** Its value is “significant blood pressure reductions”.

**Q.** What about the “maximal blood pressure reduction” value ([1]; mean arterial blood pressure monitored for 250 minutes, compared to vehicle-treated controls) of the same compound?
**A.** The value was “approximately 25 mmHg”.

**Q.** Which toxic effects [2] does the source give for `CCCCc1ccc(C(=O)O)nc1` [Fusaric acid] here?
**A.** Its toxic effects is “hepatotoxic”.

**Q.** With phenylpicolinic acid as the compound, how does the “inhibitory activity relative to fusaric acid” value (DBH) read?
**A.** Its value is “twice the inhibitory activity of fusaric acid”.
